Entries after “also recorded” stand apart in the source; their conditions may differ.

Experiment [1] deals with wild type and Nav1.9 KO mice. Put plainly: Von Frey test after intraplantar injection of cyclodextrins (cholesterol depletion). The conditions noted are these: for mechanical allodynia / tactile hyperalgesia (von Frey filament test): intraplantar injection of 20 μl of a 40 mM solution. Format: in vivo. The protocol:
(§1) Methyl βcyclodextrin or α-cyclodextrin (both from sigma) were diluted in saline buffer prior to injection. Methyl βcyclodextrin/cholesterol complex (40 mg of cholesterol/g of complex) also called soluble cholesterol was purchased (from Sigma). Unless otherwise states, all cyclodextrin or cyclodextrin/cholesterol complexes were injected at a 40 mM concentration of cyclodextrin corresponding to 5.6 mM of cholesterol in the complex. Mechanical pain threshold was assessed using von Frey filaments (BioSeb) calibrated from 0.008 to 4.000 g. The filaments were applied five times each, in order of increasing forces, and pressed perpendicularly to the plantar surface of the hindpaw until they bent. The first filament which evoked at least 3/5 response was assigned as the pain threshold in grams.

In the next experiment the test system is mice. Put plainly: Carrageenan model of persistent paw inflammation, von Frey test. It is filed as in vivo. The protocol:
Persistent paw inflammation was induced by intraplantar injection of 20 μl of 2% λ-carrageenan (Sigma) in mice. Control animal received only vehicle saline solution (0.9% NaCl). 1 hr prior to carrageenan injection, animals received intra peritoneal injection of either saline or ibuprofen (75 mg/kg in saline solution). Mechanical pain threshold was assessed using von Frey filaments (BioSeb) calibrated from 0.008 to 4.000 g. The filaments were applied five times each, in order of increasing forces, and pressed perpendicularly to the plantar surface of the hindpaw until they bent. The first filament which evoked at least 3/5 response was assigned as the pain threshold in grams.

Experiment [2] has as its system wild type and Nav1.9 KO mice. Put plainly: Von Frey test in non-inflamed animals. The conditions noted are these: intraplantar injection, non-inflamed wild type and Nav1.9 KO mice. Format: in vivo. The method, then: as §1
The test system of the next experiment is Nav1.9. Put plainly: Whole-cell voltage clamp recording of Nav1.9 activation curve in DRG neurons. Format: cell-based. Conditions: for reversal of the inflammatory cocktail-induced shift of Nav1.9 activation curve: cholesterol supply in presence of inflammatory cocktail; for shift of Nav1.9 activation curve: substance alone versus control neuron, MβCD 20 mM, water soluble cholesterol 20 mM, cholesterol oxidase 4 U/ml, 15 min 37° C. The method, then:
Dissociation of DRG neurons has been previously described (Coste et al., 2004; Coste et al., 2007). In brief, thoraco-lumbar DRG neurons were excised and incubated in enzyme solution containing 2 mg/ml of collagenase IA (Sigma) for 45 min at 37° C. before trituration in Hanks' medium (Life Technologies). Culture medium was Dulbecco's modified Eagle's medium (DMEM, Life Technologies) supplemented with 10% heat-inactivated fetal calf serum, 50 U/ml penicillin-streptomycin, 2 mML-glutamine, 25 mM glucose, 2 ng/ml glial-derived neurotrophic factor (GDNF) (all from Life Technologies), and 25 ng/ml nerve growth factor (NGF, Millipore). Cells were seeded on 35 mm cultures dishes (Nunc) coated with 2 mg/ml laminin (Sigma) and maintained in a humidified atmosphere (5% CO2, 37° C.) for 16-24 h before further cholesterol manipulations or electrophysiological recording.
Patch pipettes had resistances of 3-3.5 MΩ for whole-cell voltage clamp recordings. Intracellular solution used in this study contained: 130 CsCl, 10 HEPES, 8 NaCl, 5 EGTA, 2.4 CaCl2, 1 MgCl2 (pH 7.3, 298 mOsm/l). […] Extracellular solution contained 500 nM tetrodotoxin (TTX) as well as 1 mM amiloride and 50 μM La^3+ in order to block Ca^2+ currents without altering NaN/Nav1.9 properties (Coste et al., 2007). […]. Extracellular media were exchanged using a gravity-fed bath perfusion system at a flow rate of 2-5 ml/min, while bath solution was removed by continuous suction. Recycling was used to reduce the amount of TTX used. Stock solutions of TTX (0.1 mM) and La^3+ (1M) were prepared in water. Stock solution of amiloride hydrochloride (1M) was made in dimethylsulfoxyde (final concentration, 0.1%).
For drugs application, DRG cultures were incubated for 15 min at 37° C. in DMEM containing freshly prepared MβCD (20 mM), water soluble cholesterol (20 mM), or cholesterol oxidase (4 U/ml). The inflammatory cocktail was incubated in extracellular solution for at least 20 min at room temperature (RT).
Data were acquired with an Axopatch 200B amplifier (Axon Instruments), filtered at 2 kHz, and digitally sampled at 20 kHz using PCLAMP 10 software. Currents were leak subtracted using a P/6 protocol. Voltage errors were minimized using 70-85% series resistance compensation. Whole-cell recording were begun 1 min after achieving the whole-cell configuration, to allow Cs^+ to equilibrate and to allow Nav1.9 channels to recover from slow inactivation. Conductance-voltage curves were calculated from the peak current according to the equation G=I/(V−Erev), where V is the test pulse potential and Erev the reversal potential calculated according to the Nernst equation. The activation curve (G-V) was fitted using the Boltzmann function: G/Gmax=1/(1+exp[(V1/2−V)/k]), where G/Gmax is the normalized conductance, V1/2 is the potential of half-maximum channel activation, and k is the steepness factor.

The subject of experiment [3] is arthritic mice. Put plainly: CFA induced chronic inflammation (monoarthritis), dynamic weight bearing. It is filed as in vivo. The method, then:
Chronic inflammation (monoarthritis model) was induced under 2% isoflurane anesthesia by two subcutaneous injections of 15 μl around the tibio-tarsal joint of mice with complete Freund adjuvant (CFA), containing 5 μg/μl heat-killed Mycobacterium butyricum (Becton, Dickinson and cie). The animals' weight distribution on the four limbs was assessed using the dynamic weight bearing test (BioSeb). This new incapacitance test consists in a continuous measurement of all pressure points applied by a freely moving animal, allowing a quantitative evaluation of the weight imbalance caused by paw mechanical allodynia. Mice were placed in an 11×11×22 cm cage with a 44×44 sensor cells grid on the floor. The pressure applied on sensor cells by the animal's paws is recorded at a 10 Hz frequency over a 5 min period. Pressure and surface detection thresholds were determined automatically for each animal by the Dynamic weight bearing 1.3.2h software (Bioseb). After the manual attribution of each pressure point to the corresponding paw, the mean weight applied on each paw is calculated. Unilateral pain is finally evaluated trough the ipsi/contralateral hindpaws weight ratio, the weight applied on forepaws, and the percentage of time spent raising ipsilateral hindpaw.

Experiment [4] concerns arthritic mice. Put plainly: CFA chronic arthritis pain, transdermal gel, mechanical pain. Format: in vivo. The conditions noted are these: gel application; cholesterol 28 mM or ibuprofen 5%. The protocol: Chronic inflammation (monoarthritis model) was induced under 2% isoflurane anesthesia by two subcutaneous injections of 15 μl around the tibio-tarsal joint of mice with complete Freund adjuvant (CFA), containing 5 μg/μl heat-killed Mycobacterium butyricum (Becton, Dickinson and cie). Mechanical pain threshold was assessed using von Frey filaments (BioSeb) calibrated from 0.008 to 4.000 g. The filaments were applied five times each, in order of increasing forces, and pressed perpendicularly to the plantar surface of the hindpaw until they bent. The first filament which evoked at least 3/5 response was assigned as the pain threshold in grams.

[5] abbreviates: periarticular injection, 20 μl of a 5.6 mM solution, versus saline.

Regarding `OC[C@H]1O[C@@H]2O[C@H]3[C@H](O)[C@@H](O)[C@@H](O[C@H]4[C@H](O)[C@@H](O)[C@@H](O[C@H]5[C@H](O)[C@@H](O)[C@@H](O[C@H]6[C@H](O)[C@@H](O)[C@@H](O[C@H]7[C@H](O)[C@@H](O)[C@@H](O[C@H]1[C@H](O)[C@H]2O)O[C@@H]7CO)O[C@@H]6CO)O[C@@H]5CO)O[C@@H]4CO)O[C@@H]3CO` [α-CD, α-cyclodextrin], the “mechanical allodynia / tactile hyperalgesia (von Frey filament test)” value in experiment [1] (Nav1.9 KO mice) was “did not induce mechanical allodynia”; in experiment [1] (wild type mice), “did not induce mechanical allodynia”; in experiment [1] (wild type mice, listed as Alphα-cyclodextrin), “does not induce tactile hyperalgia”.

`CC(C)Cc1ccc(C(C)C(=O)O)cc1` (stereo not drawn) [ibuprofen]: the “effect on methyl-beta-cyclodextrin-induced allodynia (mechanical threshold)” value in experiment [1] (intraperitoneal 75 mg/kg, wild type and Nav1.9 KO mice) is recorded as “does not modify methyl-beta-cyclodextrin-induced tactile hyperalgia; also recorded: does not reverse allodynic phenotype; also recorded: did not change mechanical threshold”. Further, the “lambda-carrageenan-induced tactile hyperalgesia (von Frey)” value in the experiment with mice (intraperitoneal injection (75 mg/kg, 1 hr prior to carrageenan)) is given as “reverse lambdα-carrageenan-induced tactile hyperalgesia”.

Consider `CC(C)CCC[C@@H](C)[C@H]1CC[C@H]2[C@@H]3CC=C4C[C@@H](O)CC[C@]4(C)[C@H]3CC[C@]12C` [cholesterol], for which the “mechanical threshold in physiological non-inflamed conditions” value in experiment [2] was “without changing physiological mechanical threshold”; in experiment [2] (listed as Cholesterol), “does not modify mechanical sensibility”. The “reversal of the inflammatory cocktail-induced shift of Nav1.9 activation curve” value is given as “reverses this shift of activation” in the experiment with Nav1.9 and “reverses the shift” in the experiment with Nav1.9 (listed as Cholesterol). Also, the “shift of Nav1.9 activation curve” value in the experiment with Nav1.9 was “does not modify activation properties of Nav1.9”. Further, in the experiment on arthritic mice [3] (periarticular cholesterol injection versus saline injected mice), the “weight put on tail” value is listed as “reduces the weight put on tail”. The “posture / behavioural parameters (dynamic weight bearing)” value with arthritic mice [3] (setting [5]) is reported as “improved all posture parameters examined; also recorded: improve behavioural parameter of arthritic mice”. Further, the “weight borne by inflamed limbs” value in the experiment with arthritic mice [3] (setting [5]) is reported as “bear more weight than limbs injected with saline solution”. In addition, the “chronic arthritis mechanical pain, transdermal delivery” value in the experiment on arthritic mice [4] is given as “much efficient to treat arthritic inflammatory pain than a 5% ibuprofen gel”. Further, the “carrageenan induced mechanical allodynia, transdermal delivery” value in the experiment on mice (gel with 5.6 mM cholesterol applied for 1.5 hrs, versus control gel) is recorded as “kills carragenin induced pain”. In addition, the “lambda-carrageenan-induced tactile hyperalgesia (von Frey)” value in the experiment with mice (intraplantar injection of soluble cholesterol, 5, 6 mM of cholesterol) is on record as “inhibits inflammatory evoked pain”.

As for methyl-beta-cyclodextrin [MBCD], the “mechanical allodynia / tactile hyperalgesia (von Frey filament test)” value in experiment [1] (Nav1.9 KO mice) is “markedly reduced”; in experiment [1] (wild type mice), “induces a strong mechanical allodynia”. Also, the “shift of Nav1.9 activation curve” value in the experiment with Nav1.9 is reported as “shift Nav1.9 activation curves to hyperpolarised potential”; with Nav1.9 (listed as MβCD), “induces the same shift as inflammatory cocktail”.

Turning to cholesterol oxidase, the “shift of Nav1.9 activation curve” value in the experiment on Nav1.9 is reported as “induces the same shift as inflammatory cocktail; also recorded: shift Nav1.9 activation curves to hyperpolarised potential”.

Values taken from patent publication US20160000804A1, “INHIBITORS OF NA(V) 1.9 CHANNEL ACTIVITY AND USES THEREOF FOR TREATING PAIN” (UNIVERSITE D'AIX-MARSEILLE, priority 2013, published 2016).
